This passage reports EC50, IC50 and outcome results from PubChem BioAssay AID179 (DTP/NCI, 2004).

The experiment deals with CEM cells HIV-1 protection, formazan growth assay. As to the kind of experiment: NCI AIDS Antiviral Assay. Particulars: for IC50: measured here: growth of uninfected CEM cells. The procedure, abridged:
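Protection of CEM cells against HIV-1 measured as cell growth via soluble formazan read-out, with five concentrations tested on both infected and uninfected cells; failure to protect may reflect toxicity.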

Activity calls are given as the source filed them.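 How the source made its calls: active means compounds giving half or more protection of infected cells from virus-caused growth loss, again on retest; inactive means the rest.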 Where only a bound is given, the exact number is not on record here.

For orientation: EC50 means the midpoint of the concentration-response curve. Usually IC50 stands for the midpoint of a concentration-inhibition curve. `CC1=CC2OC3CC(OC(=O)/C=C/C=C/C(OCCC4=CC(=O)OC4)C(C)O)C(C)(C2(CO)CC1)C31CO1` (centres undefined): the EC50 was greater than 67.6 µM and the IC50 came out at 1.51 µM.
The matching figures for `COC1=C(C)C(=O)C2=C(C1=O)C1C3CC4=C(C(=O)C(OC)=C(C)C4=O)C(CNC(=O)C(C)=O)N3C(C#N)C(C2)N1C` (centres undefined): greater than 1.2 µM and 0.0245 µM.
The matching figures for `O=C(Cn1ccnc1[N+](=O)[O-])NCc1ccc(F)cc1`: greater than 178 µM and greater than 178 µM.
For the compound `C/C(=N\O)c1ccc(OCc2cc(C(F)(F)F)cc(C(F)(F)F)c2)cc1`, the EC50 was greater than 200 µM and the IC50 came to 40.7 µM.
Take `CC(C)c1nsc2c1C(=O)NC(C(C)(C)C)N2` (centres undefined): the EC50 is greater than 269 µM and the IC50 was 209 µM.
Consider `CC(CC(=O)O)C(N)C(=O)O` (centres undefined), for which the EC50 is greater than 200 µM and the IC50 was greater than 200 µM.
For `CNC(=O)NC1ON=C(c2ccccc2)C1C(=O)NC` (centres undefined), the EC50 is greater than 200 µM and the IC50 stood at 182 µM.
The corresponding values for `C=C[C+](CCCC)C(=O)[O-]` are 589 µM and 631 µM.
The matching figures for `CC1=C(C(=O)N(C)c2ccc(Cl)c(C(=O)OC(C)C)c2)SCCO1`: greater than 240 µM and 93.3 µM.
With `N/N=C1\c2ccccc2C2/C(=N\N)c3ccccc3C12` (centres undefined), the result was inactive.
`N=C1N(c2ccccc2)C(N)(N)SSC(N)(N)N1c1ccccc1`: the EC50 is greater than 141 µM and the half-maximal inhibitory concentration (IC50) stood at 17.4 µM.
The corresponding values for `O=C(O)CCCCCCCc1cccc(OCCO)c1` are greater than 200 µM and greater than 200 µM.
On to `COc1ccc(C2Oc3cc(OC)cc(O)c3C(=O)C2C2C(=O)c3c(O)cc(OC)cc3OC2c2ccc(O)cc2)cc1` (centres undefined), for which the EC50 is greater than 200 µM and the concentration for half-maximal inhibition (IC50) is 37.2 µM.
`COc1cc(N=Nc2c(O)c3ccccc3[nH]c2=O)c(OC)cc1N=Nc1ccccc1`: the EC50 was greater than 100 µM and the IC50 is greater than 100 µM.
For `CCCCN(CCCC)CC(N=O)c1cc(-c2ccc(Cl)c(Cl)c2)nc2c(Cl)cc(Cl)cc12` (centres undefined), the result was inactive.
As to `Cc1c(C)c2c(c(N)c1C#N)C(=O)N(CCc1ccccc1)C2=O`, the EC50 was greater than 200 µM and the concentration for half-maximal inhibition (IC50) turned out to be 170 µM.
As to `CCCCCCCCCCCCCCCC[N+](C)(C)Cc1ccc(C[N+](C)(C)CCCCCCCCCCCCCCCC)cc1`, the outcome was inactive.
Same read-out and setting: to `N/N=C1\C(=O)N(C2CCCCC2)C(=O)C1C(=O)NC1CCCCC1` (centres undefined) belongs “inactive”.
As for `O=C(O)c1ccc(C(c2c(O)c3ccccc3oc2=O)c2c(O)c3ccccc3oc2=O)cc1`, the EC50 was greater than 200 µM and the IC50 is 191 µM.
The matching figures for `CCOC(=O)CC(=O)C(=O)NNC1=NCCCN1`: greater than 200 µM and greater than 200 µM.
The matching figures for `CO[C@]12[C@@H](COC(=O)NCCO)C3=C(C(=O)C(C)=C(N)C3=O)N1C[C@@H]1[C@H]2N1C` (some centres undefined): greater than 200 µM and 52.5 µM.
As to `CCSSC12CCCN1C(=O)C(C)N(C)C2=O` (centres undefined), the EC50 was greater than 200 µM and the IC50 worked out at 20.4 µM.
Take `COc1ccc(-c2c(C#N)c(-c3ccc(C)cc3)n(NS(=O)(=O)c3ccccc3)c(=O)c2C#N)cc1`: the EC50 is greater than 200 µM and the IC50 was found to be 29.5 µM.
The matching figures for `CC(C)=C[C@@H]1C[C@H](n2cc(C)c(=O)[nH]c2=O)ON1CCO`: greater than 200 µM and greater than 200 µM.
The corresponding values for `NS(=O)(=O)c1cc[n+]([O-])c2ccccc12` are greater than 200 µM and 55 µM.
The matching figures for `C[N+]12C=CC=C1C(N1CCCC1)c1scc(-c3ccccc3)c12` (centres undefined): greater than 200 µM and 17.8 µM.
In the case of `CN1CCC(O)(C(C)(C)C)CC1`, the EC50 was greater than 200 µM and the half-maximal inhibitory concentration (IC50) was greater than 200 µM.
For the compound `CSc1cc(-c2ccccn2)nc(-c2ccccn2)c1.CSc1cc(-c2ccccn2)nc(-c2ccccn2)c1.[Cu+2].[O-][Cl+3]([O-])([O-])[O-]`, the EC50 was greater than 200 µM and the IC50 is 0.0631 µM.
On to `O=S(=O)(N=NC=C1c2ccccc2N(O)c2ccccc21)c1ccc(Cl)cc1`, for which the result was inactive.
On to `CNc1nncc2[nH]cnc12`, for which the EC50 is greater than 200 µM and the IC50 is greater than 200 µM.
As for `c1ccc2c(CN3CCC(C4CCN(Cc5cccc6ccccc56)CC4)CC3)cccc2c1`, the EC50 was greater than 200 µM and the IC50 came out at 0.933 µM.
The corresponding values for `Clc1cc(Br)c2c3c(c(Br)cc(Cl)c13)C(Br)=C2Br` are greater than 200 µM and 20 µM.
As to `N#C/C(=C\c1c(O)ccc2ccccc12)c1ccc([N+](=O)[O-])cc1`, the EC50 is greater than 100 µM and the IC50 was greater than 100 µM.
In the case of `N#Cc1ccsc1Nc1ccccc1[N+](=O)[O-]`, the EC50 was 95.5 µM and the IC50 was greater than 200 µM.
Consider `CO/C(=N\N=C\c1cc(OC)ccc1OC)c1ccncc1`, for which the EC50 is greater than 24 µM and the IC50 is greater than 24 µM.
Consider `CCOc1cc2c(cnc3c4cc(OC)c(OC)cc4ccc23)cc1OC`, for which the EC50 is greater than 27.5 µM and the IC50 is greater than 27.5 µM.
Take `CN=c1ss/c(=N\C(=S)N(C)C)n1C`: the outcome was inactive.
For the compound `CCC(COC(/C=C1/C=CC(=O)O1)COC(=O)c1ccccc1)c1ccccc1` (centres undefined), the EC50 was greater than 115 µM and the concentration for half-maximal inhibition (IC50) turned out to be 77.6 µM.
For the compound `CCCNC(=O)c1nc(SC)sc1NC(=O)c1ccccc1`, the EC50 was greater than 200 µM and the IC50 was greater than 200 µM.
Turning to `COc1ccc2oc3c(OC)c(OC)c(OC)cc3c(=O)c2c1`, the EC50 is greater than 8.71 µM.
On to `N#Cc1c(-c2ccccc2)cn(C(=O)c2ccccc2)c1N`, for which the EC50 is greater than 200 µM and the IC50 was determined as 191 µM.
The corresponding values for `C=C1CN=C(Nc2ccc(F)cc2F)S1` are greater than 200 µM and greater than 100 µM.
Consider `Nn1c(SCc2nc3ccccc3[nH]2)nnc1-c1ccccc1`, for which the EC50 is greater than 200 µM and the IC50 was greater than 200 µM.
In the case of `CN1C(=O)C2CSCN2C1=S` (centres undefined), the EC50 was greater than 955 µM and the IC50 stood at 316 µM.
With `CC(NC(=O)c1ccccc1)NC(=O)C(C)C(=O)Nc1ccccc1` (centres undefined), the result was inactive.
On to `CC(=O)OC1CSc2ccccc2N(C(C)=O)C1` (centres undefined), for which the EC50 is greater than 355 µM and the IC50 was greater than 355 µM.
As to `CC(=O)Oc1ccn2nc(C)c(Br)c2c1Br`, the EC50 is greater than 200 µM and the IC50 came out at 36.3 µM.
The matching figures for `O=C1OCCN1N1C(=O)CC2(CCCCC2)C1=O`: greater than 200 µM and greater than 200 µM.
With `COc1ccc(C2SCC(=O)N2NC(=O)c2ccc(NC(C)=O)cc2)c(OC)c1` (centres undefined), the EC50 was greater than 63.1 µM and the IC50 was greater than 63.1 µM.
For `O=C1CN=C(c2ccccn2)c2cc(Cl)ccc2N1CCO`, the EC50 is greater than 794 µM and the IC50 stood at 468 µM.
On to `CS(=O)(=O)CCC(N)P(=O)(O)O` (centres undefined), for which the EC50 was greater than 200 µM and the 50% inhibitory concentration (IC50) was greater than 200 µM.
`COc1ccc2cc1Oc1ccc(cc1)C[C@H]1c3cc(c(OC)cc3CCN1C)Oc1c(OC)c(OC)cc3c1[C@H](C2)N(C)CC3`: the EC50 is greater than 21.9 µM, the outcome was inactive and the IC50 turned out to be 12.3 µM.
With `O=S(=O)(N=[Se](=O)(c1ccccc1)c1ccccc1)c1ccccc1`, the EC50 was greater than 200 µM and the IC50 was 115 µM.
The corresponding values for `CCOc1ccc(Nc2nc3c(s2)C(=O)c2ccccc2C3=O)cc1` are greater than 110 µM and 9.55 µM.
The corresponding values for `CCCNC1=C(Cl)C(=O)c2ccccc2C1=O` are greater than 145 µM and 26.3 µM.
With `COC(=O)C(C)NC(=O)c1ccccc1SC(=O)CCCC[n+]1ccccc1` (centres undefined), the EC50 is greater than 200 µM and the IC50 came to 2.4 µM.
Regarding `C(/Cc1ccc2c(c1)OCO2)=N\NC1=NCCCCN1`, the EC50 was greater than 200 µM and the IC50 was 105 µM.
The corresponding values for `Nc1nc(Cl)c(Cl)c(NCC2(O)CCC2)n1` are greater than 200 µM and 20.9 µM.
The matching figures for `CCCC(=O)Oc1c(Cl)cc(C(=CCC[C@H]2CC[C@@]3(C)[C@@H](CC[C@@H]4[C@@H]3CC[C@]3(C)[C@@H]([C@H](C)CCCC(C)C)CC[C@@H]43)C2)c2cc(Cl)c(OC(=O)CCC)c(C(=O)O)c2)cc1C(=O)O`: 79.4 µM and greater than 100 µM.
The matching figures for `C#CCOC(=O)C=[N+]=[N-]`: greater than 200 µM and greater than 200 µM.
Take `O=S(=O)(O)OCCOc1ccc(S(=O)(=O)c2ccc(OCCOS(=O)(=O)O)cc2)cc1`: the EC50 is greater than 200 µM and the IC50 was greater than 200 µM.
Turning to `O=C(/C=C/c1ccc(O)c(O)c1)OCCc1ccc2ccccc2c1`, the EC50 is greater than 200 µM and the half-maximal inhibitory concentration (IC50) is 4.68 µM.
The corresponding values for `CSCCCNC(=O)[C@H](CSC)NC(=O)c1csc(CCNC(=O)[C@@H](NSc2ccccc2[N+](=O)[O-])C(C)O)n1` (some centres undefined) are greater than 57.5 µM and greater than 57.5 µM.
The corresponding values for `c1ccc(C2=NCCN2)c(C2=NCCN2)c1` are greater than 200 µM and greater than 200 µM.
The matching figures for `CC(C)(N)Cc1ccccc1Cl`: greater than 200 µM and greater than 200 µM.
With `O=S1ON=C(C2CCC(C3=NOS(=O)O3)C2)O1` (centres undefined), the EC50 was greater than 200 µM and the IC50 was greater than 200 µM.
`Cc1cccc(C)c1NC(=O)CCC(=O)CC(=O)C(C)C`: the EC50 was greater than 123 µM and the half-inhibitory concentration (IC50) is greater than 123 µM.
`CCOC(=O)/C=C/n1c2ccccc2c(=O)c2ccccc21`: the EC50 was greater than 9.33 µM and the IC50 is greater than 9.33 µM.
Take `CC1C(O)Oc2cc3c(cc2C1c1ccccc1O)OCO3` (centres undefined): the EC50 was greater than 200 µM and the concentration for half-maximal inhibition (IC50) worked out at 35.5 µM.
The matching figures for `CC(C)(C)[C@H]1CCC2(OCCO2)[C@](O)(CCCO)C1`: greater than 200 µM and greater than 200 µM.
The corresponding values for `Clc1ccc(-c2nnc(-c3nn(-c4ccccc4)c4nc5ccccc5nc34)o2)cc1` are greater than 1.29 µM and greater than 1.29 µM.
In the case of `Brc1ccc(N=NN2CCCCC2)cc1`, the EC50 was greater than 200 µM and the IC50 is 18.6 µM.
For the compound `CCCOP(=O)(OCCC)OC(C(F)(F)F)C(F)(F)F`, the EC50 is greater than 200 µM and the concentration for half-maximal inhibition (IC50) was greater than 200 µM.
